From patent US9006284B2, “Combination therapy for treating proliferative diseases” (Bionomics Limited, priority 2009, dated 2015)
pIC50: −log10 of the molar value.

Key:
[1] = tested on: Human umbilical vein endothelial cells (HUVECs), tumour type activated endothelial cells; assay: Proliferation assay, activated endothelium (Tum); format: cell-based; conditions: HUVEC, given as ranges
Protocol: (§1) Proliferation Assay—activated endothelium: Human umbilical vein endothelial cells (CC-2519, Clonetics) were plated at 2500 cells/well in EGM2 (CC-3162, Clonetics) in a 96 well plate in triplicate. Cells were cultured overnight at 37° C. 5% CO2. Medium was subsequently replaced with fresh medium including the compound or negative control. Cells were cultured for a period of 48 hrs. An MTT assay was performed to measure changes in cell numbers. Briefly, 20 μl of MTT reagent was added to cells containing 100 μl of EGM2 and incubated at 37° C. for 2 hours. Absorbance was measured at 492 nm.

[2] = tested on: Human umbilical vein endothelial cells (HUVECs), normal quiescent type endothelial cells; assay: Proliferation assay, quiescent endothelium (Norm); format: cell-based; conditions: HUVEC, given as ranges
Protocol: as §1, with “Assay—quiescent” for “Assay—activated”, “15000” for “2500”, “EBM2 (CC-3156, Clonetics)+0.5% FBS (CC-4101A, Clonetics)+GA-1000 (CC-4381A,” for “EGM2 (CC-3162,”, “EBM2+0.5% FBS” for “EGM2”

MCF-7 = assay: Growth inhibition (SRB or cell counting), MCF-7; format: cell-based; conditions: Homo sapiens, MCF7, concentration required to inhibit net cell growth by 50%, read-out: Cancer cell line: IC50
MDA-MB-231 = assay: Growth inhibition (SRB or cell counting), MDA-MB-231; format: cell-based; conditions: Homo sapiens; MDA-MB-231 (footnote b); given as ranges; read-out: Cancer cell line: IC50
Caki-1 xenograft tumors = assay: Immunohistochemistry analysis of Caki-1 renal xenografts; format: in vivo, BALB/c nu/nu mice; conditions: single i.v. 32 mg/kg
Source text: These effects result in some reduction of tumor growth in animal models. Tumor recovery from the vascular damage caused by VDA action occurs within 48 hrs post-treatment. Furthermore, vascular disruption spares the outer cellular rim of a tumor mass that appears to be supported by normal vessels that surround the tumor capsule and remain unaffected by VDA action. It is reasonable to hypothesise that his viable rim subsequently supports tumor revascularisation and recovery from the action of the VDA agent. We hypothesised that the recovery of the tumors from the effects of the VDA action is driven by molecular pathways that support cancer cell survival and induction of angiogenesis. We undertook a number of histological analyses to assess the damage caused by Example 2 on the integrity of components of the tumor microenvironment and obtain information of upregulation of proteins that are likely to be involved in tumor recovery. Our analyses included evaluation of the expression of VEGF, phosphorylated mTOR, Hypoxia inducible factor-1-alpha (Hif-1α), and Hypoxia inducible factor-2-alpha (Hif-2α), the level of apoptosis, integrity of endothelial cells and the basement membrane protein laminin.
Female BALB/c nu/nu mice at 6 to 8 weeks were injected s.c. with the human cancer cell line Caki-1 representing renal cancer. Cells were resuspended in Dulbecco's PBS (Sigma-Aldrich) and 5×10^6 cells were injected s.c. Tumors were grown to an average size of 700 mm^3 prior to treatment. Example 2 treatment consisted of a single i.v. injection at dose level of 32 mg/kg. Saline treatment was included as a vehicle control. Animals were euthanized and tumors were excised for histologic examination 24 hours post dosing. Cryosections of tumors were prepared and probed with phosphorylated mTOR (ser 2448), Hif-1α, Hif-2α and CD31 specific antibodies. Antibody staining was visualized using 3,3′-Diaminobenzidine (brown staining) and sections were conterstained with Myers hematoxylin.

[3] = tested on: MDA-MB-231 solid orthotopic tumors; assay: Tumor growth inhibition, MDA-MB-231 orthotopic tumors; format: in vivo, Balb/c nu/nu mice; conditions: 40 mg/kg i.v., two cycles, up to 72 days; vs vehicle p<0.001 from day 4 to Day 70
Source text: Animals were i.v. dosed with a total of two cycles of Example 2 treatment. Each cycle was dosing on […] followed by a three week no-dosing period. Tumor growth represented as a ratio to initial tumor volume is shown over a total of 72-days.
Tumor growth as well as animal health were monitored for up to 72 days post-day 1 of treatment. […] Significant differences in tumor growth between Example 2 treated (n=64) and vehicle treated (n=20) animals were observed as early as day 4 (p<0.001; unpaired t-test; Prism® analysis) through to Day 70.

[4] = tested on: tumor endothelial cells (activated) and normal endothelial cells (quiescent); assay: Selectivity between activated and quiescent endothelial cells; format: cell-based
Protocol: as §1, with “Assay—quiescent” for “Assay—activated”, “15000” for “2500”, “EBM2 (CC-3156, Clonetics)+0.5% FBS (CC-4101A, Clonetics)+GA-1000 (CC-4381A,” for “EGM2 (CC-3162,”, “EBM2+0.5% FBS” for “EGM2”
as §1

[5] = around the viable rim region, 24 hours

SMILES: COc1cc(C(=O)c2c(NCCS(N)(=O)=O)oc3c(O)c(OC)ccc23)cc(OC)c1OC [Example 45]
- pIC50 [1]: 8.00 to 9.00
- pIC50 [2]: 8.00 to 9.00

SMILES: CCCCc1oc2c(O)c(OC)ccc2c1C(=O)c1cc(OC)c(OC)c(OC)c1 [Example 32]
- pIC50 [1]: 8.00 to 9.00
- pIC50 [2]: 8.00 to 9.00

SMILES: COc1ccc2c(C(=O)c3cc(OC)c(OC)c(OC)c3)c(C)sc2c1 [Example 41]
- pIC50 [1]: 8.00 to 9.00
- pIC50 [2]: 8.00 to 9.00

SMILES: C#Cc1oc2c(O)c(OC)ccc2c1C(=O)c1cc(OC)c(OC)c(OC)c1 [Example 12]
- pIC50 [1]: 8.00 to 9.00
- pIC50 (MCF-7): 8.48
- pIC50 [2]: 8.00 to 9.00

SMILES: COc1cc(C(=O)c2coc3c(N)c(OC)ccc23)cc(OC)c1OC [Example 19]
- pIC50 [1]: 8.00 to 9.00
- pIC50 [2]: 8.00 to 9.00
- pIC50 (MDA-MB-231): 8.00 to 9.00

SMILES: COc1cc(C(=O)c2c(CN(C)C)oc3c(O)c(OC)ccc23)cc(OC)c1OC [Example 34]
- pIC50 [1]: 8.00 to 9.00
- pIC50 [2]: 8.00 to 9.00

SMILES: COc1cc(C(=O)c2c(C)oc3c(OP(=O)([O-])[O-])c(OC)ccc23)cc(OC)c1OC.[Na+].[Na+] [Example 2, Disodium 6-methoxy-2-methyl-3-(3,4,5-trimethoxybenzoyl)benzofuran-7-yl phosphate]
- Number of apoptotic cells within the tumor (Caki-1 xenograft tumors; 24-30 hrs after treatment): significant increase in the number of apoptotic cells
- Staining of laminin (basement membrane integrity) (Caki-1 xenograft tumors; 24-30 hrs after treatment): considerable reduction in the staining
- Staining with anti-human VEGF antibody (Caki-1 xenograft tumors; 24-30 hrs after treatment): dramatic increase in staining
- Staining with endothelial cell marker CD31 (Caki-1 xenograft tumors; 24-30 hrs after treatment): decrease in staining
- Expression of Hif-1α (Caki-1 xenograft tumors; [5]): Increased expression
- Expression of Hif-2α (Caki-1 xenograft tumors; [5]): Increased expression
- Expression of phosphorylated mTOR (ser 2448) (Caki-1 xenograft tumors; [5]): Increased expression
- Tumor growth (ratio to initial tumor volume) [3]: tumor growth inhibition

SMILES: CCc1oc2c(O)c(OC)ccc2c1C(=O)c1cc(OC)c(OC)c(OC)c1 [Example 33]
- pIC50 [1]: 9.00 to 10.00
- pIC50 [2]: 9.00 to 10.00

SMILES: COc1cc(C(=O)c2c(C)sc3c(O)c(OC)ccc23)cc(OC)c1OC [Example 42]
- pIC50 [1]: 9.00 to 10.00
- pIC50 [2]: 8.00 to 9.00

SMILES: COc1ccc(/C=C\c2cc(OC)c(OC)c(OC)c2)cc1O [Combretastatin A4]
- Selectivity activated vs quiescent endothelial cells [4]: equally potent against quiescent and activated endothelial cells

SMILES: COc1cc(C(=O)c2c(C#N)oc3c(O)c(OC)ccc23)cc(OC)c1OC [Example 23]
- pIC50 [1]: 8.00 to 9.00
- pIC50 [2]: 8.00 to 9.00
- pIC50 (MDA-MB-231): 9.00 to 10.00

SMILES: CNc1oc2c(O)c(OC)ccc2c1C(=O)c1cc(OC)c(OC)c(OC)c1 [Example 10]
- pIC50 [1]: 8.00 to 9.00
- pIC50 (MCF-7): 8.46
- pIC50 [2]: 9.00 to 10.00

SMILES: COc1ccc(/C=C\c2cc(OC)c(OC)c(OC)c2)cc1OP(=O)(O)O [Example 4]
- pIC50 [1]: 8.00 to 9.00
- pIC50 (MCF-7): 8.30
- pIC50 [2]: 8.00 to 9.00

SMILES: COc1ccc2c(C(=O)c3cc(OC)c(OC)c(OC)c3)coc2c1 [Example 5]
- pIC50 [1]: 7.00 to 8.00
- pIC50 (MCF-7): 7.26
- pIC50 [2]: 7.00 to 8.00

SMILES: COc1cc(C(=O)c2c(N)oc3c(O)c(OC)ccc23)cc(OC)c1OC [Example 25]
- pIC50 [1]: 8.00 to 9.00
- pIC50 [2]: 8.00 to 9.00
- pIC50 (MDA-MB-231): 9.00 to 10.00

SMILES: COc1cc(C(=O)c2c(C)[nH]c3c(O)c(OC)ccc23)cc(OC)c1OC [Example 39]
- pIC50 [1]: 10.00 to 11.00
- pIC50 [2]: 9.00 to 10.00
